Our source for the inhibition and IC50 values is ChEMBL document CHEMBL1147406, “Polar substitutions in the benzenesulfonamide ring of celecoxib afford a potent 1,5-diarylpyrazole class of COX-2 inhibitors” (Bioorg Med Chem Lett, 2004).

For assay [1], the target named is T1, Prostaglandin G/H synthase 1 (Ovis aries) (UniProt P05979).
T1 sequence (whole entry): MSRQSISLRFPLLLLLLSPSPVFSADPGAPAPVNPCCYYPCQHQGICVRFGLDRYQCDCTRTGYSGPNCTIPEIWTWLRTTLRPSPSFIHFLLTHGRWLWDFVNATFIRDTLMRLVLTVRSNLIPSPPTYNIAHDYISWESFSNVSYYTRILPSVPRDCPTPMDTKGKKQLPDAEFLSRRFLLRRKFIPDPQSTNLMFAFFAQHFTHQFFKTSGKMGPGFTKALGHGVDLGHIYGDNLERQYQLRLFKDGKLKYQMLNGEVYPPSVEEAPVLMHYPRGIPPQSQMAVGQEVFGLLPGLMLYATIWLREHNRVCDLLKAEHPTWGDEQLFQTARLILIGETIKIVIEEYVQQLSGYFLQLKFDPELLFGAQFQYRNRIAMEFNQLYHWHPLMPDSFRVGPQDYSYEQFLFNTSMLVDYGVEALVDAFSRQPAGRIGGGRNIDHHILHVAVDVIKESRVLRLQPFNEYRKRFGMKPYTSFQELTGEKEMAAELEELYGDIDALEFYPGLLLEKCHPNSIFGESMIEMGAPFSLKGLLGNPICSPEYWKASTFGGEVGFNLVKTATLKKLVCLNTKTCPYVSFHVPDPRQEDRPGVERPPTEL
Nature of the assay: Inhibitory activity against prostaglandin G/H synthase 1 from ram seminal vesicles at 100 uM concentration.

The target of assay [2] is T2, Prostaglandin G/H synthase 2 (Homo sapiens) (UniProt P35354).
T2 sequence (whole entry): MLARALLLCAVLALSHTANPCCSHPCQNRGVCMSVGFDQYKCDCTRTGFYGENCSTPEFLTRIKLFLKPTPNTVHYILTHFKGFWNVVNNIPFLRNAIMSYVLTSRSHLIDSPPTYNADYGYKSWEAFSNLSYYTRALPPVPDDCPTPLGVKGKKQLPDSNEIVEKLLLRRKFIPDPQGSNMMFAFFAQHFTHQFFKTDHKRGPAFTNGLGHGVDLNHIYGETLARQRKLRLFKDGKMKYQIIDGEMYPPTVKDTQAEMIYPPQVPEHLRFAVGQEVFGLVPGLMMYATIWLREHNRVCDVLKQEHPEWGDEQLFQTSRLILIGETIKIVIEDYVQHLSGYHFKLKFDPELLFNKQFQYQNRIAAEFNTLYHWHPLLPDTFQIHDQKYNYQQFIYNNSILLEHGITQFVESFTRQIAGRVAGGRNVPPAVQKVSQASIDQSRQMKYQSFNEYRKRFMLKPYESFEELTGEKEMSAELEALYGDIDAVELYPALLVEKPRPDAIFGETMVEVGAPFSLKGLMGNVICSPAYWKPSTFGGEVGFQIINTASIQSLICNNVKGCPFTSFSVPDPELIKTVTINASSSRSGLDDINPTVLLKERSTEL
Nature of the assay: Inhibitory activity of compound against human Prostaglandin G/H synthase 2 expressed in sf-9 cells infected with baculovirus at 100 uM concentration. The conditions noted are these: Sf9.

Assay [3] concerns the target T3, Prostaglandin G/H synthase 1 (Ovis aries, UniProt P05979).
T3 sequence (P05979 whole entry): T1 sequence (whole entry)

For assay [4], the target named is T4, Prostaglandin G/H synthase 2 (Homo sapiens, UniProt P35354).
T4 sequence (P35354 whole entry): T2 sequence (whole entry)
Nature of the assay: Inhibitory activity against human Prostaglandin G/H synthase 2 expressed in sf-9 cells infected with baculovirus. In kind it is cell-based, Sf9.

Assay [5] deals with T2, Prostaglandin G/H synthase 2 (Homo sapiens). Nature of the assay: Inhibitory activity of compound against human cyclooxygenase-2 expressed in sf-9 cells infected with baculovirus at 10 uM concentration. The conditions noted are these: Sf9.
Assay [6] deals with T1, Prostaglandin G/H synthase 1 (Ovis aries). Nature of the assay: Inhibitory activity of compound against prostaglandin G/H synthase 1 from ram seminal vesicles at 10 uM concentration.
The target is the same in assay [7]. Nature of the assay: Inhibitory activity of compound against Prostaglandin G/H synthase 1 from ram seminal vesicles at 10 uM concentration.

What is called inhibition is the share of the control response that was lost under treatment. Take `COc1ccc(-c2cc(C(F)(F)F)nn2-c2ccc3c(c2)COS3(=O)=O)cc1`: the inhibition amounted to 92% in assay [1] and 36% in assay [2].
For `COc1ccc(-c2cc(C(F)(F)F)nn2-c2ccc3c(c2)CNS3(=O)=O)cc1`, the inhibition in assay [1] turned out to be 85%; in assay [2], 12%.
For `COc1ccc(-c2cc(C(F)(F)F)nn2-c2ccc3c(c2)CCS3(=O)=O)cc1`, in that order: 86% and 36%.
What is called IC50 is the point on the concentration scale where inhibition reaches its midpoint. Higher therefore signals a need for much substance. For `Cc1ccc(-c2cc(C(F)(F)F)nn2-c2ccc(S(N)(=O)=O)c(CO)c2)cc1`, the results for the IC50 in assay [3] and in assay [4] were 278 µM and 0.76 µM, respectively.
On to `NS(=O)(=O)c1ccc(-n2nc(C(F)(F)F)cc2-c2ccc(O)cc2)cc1CO`, for which the inhibition in assay [5] was 19%; in assay [6], 0%.
For the compound `NS(=O)(=O)c1ccc(-n2nc(C(F)(F)F)cc2-c2ccc(Cl)cc2)cc1CO`, the IC50 came out at 336 µM in assay [3] and 0.712 µM in assay [4].
For `NS(=O)(=O)c1ccc(-n2nc(C(F)(F)F)cc2-c2ccccc2Cl)cc1CO`, in that order: 512 µM and 6.3 µM.
For `NS(=O)(=O)c1ccc(-n2nc(C(F)(F)F)cc2-c2cccc(F)c2)cc1CO`, in that order: 1000 µM and 7.05 µM.
As for `CS(=O)(=O)c1ccc(-c2cc(C(F)(F)F)nn2-c2ccc(S(N)(=O)=O)c(CO)c2)cc1`, the inhibition in assay [1] stood at 68%; in assay [2], 29%.
Regarding `NS(=O)(=O)c1ccc(-n2nc(C(F)(F)F)cc2-c2ccccc2)cc1CO`, the IC50 in assay [3] was 1090 µM; in assay [4], 3.45 µM.
For `NS(=O)(=O)c1ccc(-n2nc(C(F)(F)F)cc2-c2ccc(Br)cc2)cc1CO`, the IC50 in assay [3] is 230 µM; in assay [4], 0.592 µM.
With `CC(C)Cc1ccc(-c2cc(C(F)(F)F)nn2-c2ccc(S(N)(=O)=O)c(CO)c2)cc1`, the inhibition in assay [1] is 4%; in assay [2], 14%.
As for `CCc1ccc(-c2cc(C(F)(F)F)nn2-c2ccc(S(N)(=O)=O)c(CO)c2)cc1`, the values for the half-maximal inhibitory concentration (IC50) in assay [3] and in assay [4] were 500 µM and 1.38 µM, respectively.
For `CCOc1ccc(-c2cc(C(F)(F)F)nn2-c2ccc(S(N)(=O)=O)c(CO)c2)cc1`, in that order: 135 µM and 0.901 µM.
For `NS(=O)(=O)c1ccc(-n2nc(C(F)(F)F)cc2-c2ccc(F)cc2)cc1CO`, in that order: 500 µM and 1.99 µM.
Take `CCSc1ccc(-c2cc(C(F)(F)F)nn2-c2ccc(S(N)(=O)=O)c(CO)c2)cc1`: the IC50 in assay [3] came to 300 µM; in assay [4], 51.2 µM.
For `NS(=O)(=O)c1ccc(-n2nc(C(F)(F)F)cc2-c2ccccc2F)cc1CO`, in that order: 500 µM and 3.3 µM.
Turning to `CSc1ccc(-c2cc(C(F)(F)F)nn2-c2ccc(S(C)(=O)=O)c(CO)c2)cc1`, the inhibition in assay [1] was 0%; in assay [2] it was 45%.
Consider `COc1ccc(-c2cc(C(F)(F)F)nn2-c2ccc(S(N)(=O)=O)c(CO)c2)cc1`, for which the results for the IC50 in assay [3] and in assay [4] were 63 µM and 0.365 µM, respectively.
The corresponding values for `COc1ccc(-c2cc(C(F)(F)F)nn2-c2ccc(S(N)(=O)=O)c(CNC(C)=O)c2)cc1` are 100 µM and 2.8 µM.
For the compound `COc1ccccc1-c1cc(C(F)(F)F)nn1-c1ccc(S(N)(=O)=O)c(CO)c1`, the results for the IC50 in assay [3] and in assay [4] were 1150 µM and 28.6 µM, respectively.
For the compound `CC(=O)NCc1cc(-n2nc(C(F)(F)F)cc2-c2ccc(C)cc2)ccc1S(N)(=O)=O`, the IC50 amounted to 4.62 µM in assay [3] and 6.85 µM in assay [4].
Turning to `Cc1ccc(-c2cc(C(F)(F)F)nn2-c2ccc3c(c2)CCS3(=O)=O)cc1`, the inhibition came out at 90% in assay [1] and 10% in assay [2].
For `CCC(=O)OCc1cc(-n2nc(C(F)(F)F)cc2-c2ccc(C)cc2)ccc1S(N)(=O)=O`, the values for the IC50 in assay [3] and in assay [4] were 34.6 µM and 0.57 µM, respectively.
Regarding `CSc1ccc(-c2cc(C(F)(F)F)nn2-c2ccc(S(N)(=O)=O)c(C(C)O)c2)cc1` (stereo not given), the inhibition in assay [1] is 6%; in assay [2] it was 50%.
As for `NS(=O)(=O)c1ccc(-n2nc(C(F)(F)F)cc2-c2cccc(Cl)c2)cc1CO`, the IC50 in assay [3] was 465 µM; in assay [4], 1.95 µM.
As for `COc1ccc(-c2cc(C(F)(F)F)nn2-c2ccc(S(C)(=O)=O)c(C=O)c2)cc1`, the results for the inhibition in assay [5], in assay [1] and in assay [2] were 44%, 92% and 100%, respectively.
On to `CSc1ccc(-c2cc(C(F)(F)F)nn2-c2ccc(S(N)(=O)=O)c(CO)c2)cc1`, for which the IC50 in assay [3] turned out to be 59.7 µM; in assay [4], 0.235 µM.
Consider `COc1ccc(-c2cc(C(F)(F)F)nn2-c2ccc(S(C)(=O)=O)c(CO)c2)cc1`, for which the IC50 in assay [3] amounted to 300 µM; in assay [4] it was 3.2 µM.
In the case of `CC(=O)NCc1cc(-n2nc(C(F)(F)F)cc2-c2ccc(Cl)cc2)ccc1S(N)(=O)=O`, the IC50 is 100 µM in assay [3] and 5 µM in assay [4].
For the compound `CCOC(=O)OCc1cc(-n2nc(C(F)(F)F)cc2-c2ccc(C)cc2)ccc1S(C)(=O)=O`, the inhibition is 9% in assay [7] and 0% in assay [5].
In the case of `Cc1cccc(-c2cc(C(F)(F)F)nn2-c2ccc(S(N)(=O)=O)c(CO)c2)c1`, the IC50 is 327 µM in assay [3] and 0.728 µM in assay [4].
